Experimental data: ChEMBL document CHEMBL1201862, “PubChem BioAssay data set” (2004)
Active and inactive are the calls of the source.

Columns and labels:
T-cell = experiment: inhibitors of CD8+ T cell–vesicle binding, dose response, mouse 2C CD8+ T cells, flow cytometry (AID 485284); type: functional
Cannabinoid receptor 2 [1] = molecular target: T1, Cannabinoid receptor 2 (Homo sapiens, UniProt P34972); experiment: SAR analysis of antagonists of the Cannabinoid Receptor 2 using an Image-Based Assay - Set 2. [Related pubchem assays (depositor defined):AID1961, AID1965]; type: functional
[2] = molecular target: G-protein coupled receptor 55 (Homo sapiens, UniProt Q9Y2T6); experiment: SAR analysis of selective Agonists of GPR55 using an Image-Based Assay - Set 2. [Related pubchem assays (depositor defined):AID1961, AID1965]; type: functional
[3] = molecular target: T2, G-protein coupled receptor 35 (Homo sapiens, UniProt Q9HC97); experiment: SAR analysis of Agonists of the GPR35 Receptor using an Image-Based Assay - Set 3. [Related pubchem assays (depositor defined):AID1961, AID1965]; type: functional
Cannabinoid receptor 2 [4] = molecular target: T1, Cannabinoid receptor 2; experiment: SAR analysis of agonists of the Cannabinoid Receptor 2 using an Image-Based Assay - Set 2. [Related pubchem assays (depositor defined):AID1961, AID1965]; type: functional
Cannabinoid receptor 1 [5] = molecular target: T3, Cannabinoid receptor 1 (Homo sapiens, UniProt P21554); experiment: SAR analysis of antagonists of the Cannabinoid Receptor 1 using an Image-Based Assay - Set 3. [Related pubchem assays (depositor defined):AID1961, AID1965]; type: functional
[6] = molecular target: T2, G-protein coupled receptor 35; experiment: SAR analysis of Antagonists of the GPR35 Receptor using an Image-Based Assay - Set 4. [Related pubchem assays (depositor defined):[…]]; type: functional
Cannabinoid receptor 1 [7] = molecular target: T3, Cannabinoid receptor 1; experiment: SAR analysis of agonists of the Cannabinoid Receptor 1 using an Image-Based Assay - Set 3. [Related pubchem assays (depositor defined):AID1961, AID1965]; type: functional
[8] = molecular target: T4, Runt-related transcription factor 1/Core-binding factor subunit beta (Homo sapiens, UniProt Q01196+Q13951); experiment: inhibitors of RUNX1 Runt–CBFb-SMMHC binding, primary screen, biochemical, FRET, Cerulean-Runt, Venus-CBFb-SMMHC, uHTS (AID 1434); type: protein assay;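 also: partner is the CBFb-SMMHC leukemia fusion protein rather than wild-type CBFb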
[9] = molecular target: T4, Runt-related transcription factor 1/Core-binding factor subunit beta; experiment: inhibitors of RUNX1 Runt–CBFb-SMMHC binding, biochemical, TR-FRET (AID 1438); type: protein assay
Troponin, cardiac muscle = Troponin, cardiac muscle (Homo sapiens, UniProt P19429+P45379+P63316); experiment: Fluorescence-based biochemical high throughput dose response assay for activators of the calcium sensitivity of cardiac Regulated Thin Filaments (RTF). [Related pubchem assays (depositor defined):AID493008, AID493018, AID504382, AID504383]; type: protein-complex assay
Hexokinase HKDC1 = Hexokinase HKDC1 (Homo sapiens, UniProt Q2TB90); experiment: HKDC1 hexokinase activators, dose response, biochemical, W721R variant (AID 504730); type: functional
[10] = Luminescence Cell-Based Dose Confirmation HTS to Identify Inhibitors of Platelet Dense Granule Release. [Related pubchem assays: 1663 (Primary HTS), 1678 (Summary of Project)]; type: functional
[11] = HeLa cell cytotoxicity, dose response, cytotoxicity control for MgcRacGAP inhibitor project (AID 624300); type: functional
Nonstructural protein 1 = Nonstructural protein 1 (Influenza A virus, UniProt Q194T2); type: functional, Influenza A virus (A/California/07/2009(H1N1))
Hexokinase-1 = Hexokinase-1 (Homo sapiens, UniProt P19367); experiment: hexokinase 1 activators, dose response, selectivity assay for HKDC1 activator project, biochemical (AID 504762); type: functional
[12] = molecular target: T5, Rac GTPase-activating protein 1 (Homo sapiens, UniProt Q9H0H5); experiment: MgcRacGAP GTPase-activating activity inhibitors, confirmation, biochemical, ADP Hunter fluorescence, primary and confirmatory (AID 624330); type: functional
T5 sequence (Q9H0H5 whole entry): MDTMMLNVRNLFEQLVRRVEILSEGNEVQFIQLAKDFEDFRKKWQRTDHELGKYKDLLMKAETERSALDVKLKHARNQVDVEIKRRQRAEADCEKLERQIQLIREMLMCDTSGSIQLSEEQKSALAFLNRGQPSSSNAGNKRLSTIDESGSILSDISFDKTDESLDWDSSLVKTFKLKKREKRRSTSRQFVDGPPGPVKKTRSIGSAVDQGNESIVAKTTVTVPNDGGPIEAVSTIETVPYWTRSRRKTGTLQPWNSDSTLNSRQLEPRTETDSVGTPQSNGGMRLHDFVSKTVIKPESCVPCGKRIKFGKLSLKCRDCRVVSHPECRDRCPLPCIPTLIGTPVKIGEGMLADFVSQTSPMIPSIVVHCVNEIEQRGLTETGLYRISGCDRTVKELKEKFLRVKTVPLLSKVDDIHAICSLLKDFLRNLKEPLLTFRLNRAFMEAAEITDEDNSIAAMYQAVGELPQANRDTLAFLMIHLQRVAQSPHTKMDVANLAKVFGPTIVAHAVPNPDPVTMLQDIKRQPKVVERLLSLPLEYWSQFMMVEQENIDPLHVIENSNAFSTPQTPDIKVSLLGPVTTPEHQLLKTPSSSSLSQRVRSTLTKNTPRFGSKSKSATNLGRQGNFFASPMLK

[13] = molecular target: Luciferin 4-monooxygenase (Photinus pyralis, UniProt P08659); experiment: firefly luciferase enzyme inhibitors, dose response, biochemical, luminescence (AID 1891)
[14] = molecular target: T6, Heat shock factor protein 1 (Mus musculus, UniProt P38532); experiment: inhibition of MG132-induced HSE-luciferase signal, confirmation, cell-based, NIH3T3, luminescence, dose retest (AID 2382); type: functional;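 also: NIH3T3 fibroblasts with HSF1-driven luciferase reporter stressed by proteasome inhibitor MG132; luminescence from HSF1-driven luciferase expression after 8 hours of MG132 stress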
T6 sequence (P38532 whole entry): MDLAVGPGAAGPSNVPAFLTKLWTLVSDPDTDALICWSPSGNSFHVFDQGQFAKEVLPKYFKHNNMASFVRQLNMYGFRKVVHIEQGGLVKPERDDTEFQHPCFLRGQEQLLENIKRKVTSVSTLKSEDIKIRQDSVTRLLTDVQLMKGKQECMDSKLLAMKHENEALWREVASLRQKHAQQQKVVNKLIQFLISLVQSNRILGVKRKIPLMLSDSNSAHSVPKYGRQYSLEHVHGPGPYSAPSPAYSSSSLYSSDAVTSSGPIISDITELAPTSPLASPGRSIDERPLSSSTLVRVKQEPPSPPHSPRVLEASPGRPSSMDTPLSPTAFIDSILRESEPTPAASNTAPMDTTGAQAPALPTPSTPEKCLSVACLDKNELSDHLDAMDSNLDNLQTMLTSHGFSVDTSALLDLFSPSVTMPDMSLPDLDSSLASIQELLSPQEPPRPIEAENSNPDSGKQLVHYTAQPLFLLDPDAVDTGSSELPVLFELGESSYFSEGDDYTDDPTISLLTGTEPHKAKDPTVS

[15] = molecular target: T7, Carboxy-terminal domain RNA polymerase II polypeptide A small phosphatase 1 (Homo sapiens, UniProt Q9GZU7); experiment: inhibitors of CTDSP1, concentration-response testing, biochemical assay, absorbance-based, actives from ultra-high-throughput screening (AID 540297); type: functional
T7 sequence (Q9GZU7 whole entry): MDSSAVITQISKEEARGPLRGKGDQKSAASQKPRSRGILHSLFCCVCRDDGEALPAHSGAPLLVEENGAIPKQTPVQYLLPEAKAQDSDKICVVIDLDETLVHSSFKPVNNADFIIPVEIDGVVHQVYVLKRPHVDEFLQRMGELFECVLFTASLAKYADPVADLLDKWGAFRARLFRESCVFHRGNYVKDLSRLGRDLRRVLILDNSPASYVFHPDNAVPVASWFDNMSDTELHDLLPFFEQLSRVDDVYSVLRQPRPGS

[16] = molecular target: DNA dC->dU-editing enzyme APOBEC-3A (Homo sapiens, UniProt P31941); experiment: Dose Response confirmation of small molecule APOBEC3A DNA Deaminase Inhibitors via a fluorescence-based single-stranded DNA deaminase assay. [Related pubchem assays (depositor defined):AID493011, AID493024]; type: functional
[17] = molecular target: DNA dC->dU-editing enzyme APOBEC-3G (Homo sapiens, UniProt Q9HC16); type: functional;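 also: Dose-response counterscreen measuring inhibition of APOBEC3G DNA deaminase activity, run while confirming APOBEC3A inhibitors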
HEK293 [18] = experiment: cells; details: Homo sapiens
[19] = molecular target: T8, Nucleotide-binding oligomerization domain-containing protein 2 (Homo sapiens, UniProt Q9HC29); experiment: NOD2 signaling inhibitors, cell-based, luminescence, uHTS, HEK293 (AID 1566); type: functional
HEK293 [20] = experiment: NOD2 signaling inhibitors in MDP-stimulated cells, cell-based, uHTS, luminescence (AID 2001); type: functional; details: Homo sapiens
Tumor necrosis factor = Tumor necrosis factor (Homo sapiens, UniProt P01375); experiment: TNFa-triggered NF-kB activation inhibitors, SAR follow-up, cell-based, revised (AID 2337); type: functional
[21] = molecular target: Nucleotide-binding oligomerization domain-containing protein 1 (Homo sapiens, UniProt Q9Y239); experiment: NOD1 signaling inhibitors, SAR follow-up, revised (AID 2333); type: functional
HEK293 [22] = experiment: NOD1 signaling inhibitors, primary screen, cell-based, luminescence, uHTS (AID 1578); type: functional; details: Homo sapiens
HEK293 [23] = experiment: cells; type: functional, cell-based; details: Homo sapiens
HEK293 [24] = experiment: cells; type: functional, cell-based; details: Homo sapiens; remark: listed apart in the source
HEK293 [25] = experiment: cells; type: functional, cell-based; details: Homo sapiens; remark: listed apart in the source
[26] = molecular target: T9, Calpain-2 catalytic subunit (Sus scrofa, UniProt P43367); experiment: pig calpain II inhibitor potency, dose response, biochemical, fluorogenic peptide substrate (AID 1420); type: functional
T9 sequence (P43367 whole entry): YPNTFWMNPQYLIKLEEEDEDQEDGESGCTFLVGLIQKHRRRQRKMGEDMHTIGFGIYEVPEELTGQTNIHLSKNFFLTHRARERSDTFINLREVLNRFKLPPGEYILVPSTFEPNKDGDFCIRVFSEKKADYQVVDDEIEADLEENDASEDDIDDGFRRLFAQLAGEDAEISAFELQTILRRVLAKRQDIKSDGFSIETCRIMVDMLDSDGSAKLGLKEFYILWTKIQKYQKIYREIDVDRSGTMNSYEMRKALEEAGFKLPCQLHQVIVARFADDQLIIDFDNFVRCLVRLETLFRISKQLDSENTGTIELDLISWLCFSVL

[27] = molecular target: T8, Nucleotide-binding oligomerization domain-containing protein 2; experiment: PubChem AID 2334; type: functional
[28] = molecular target: T10, Sphingosine 1-phosphate receptor 4 (Homo sapiens, UniProt O95977); experiment: Late-stage fluorescence dose response cell-based assay to identify agonists of the Sphingosine 1-Phosphate Receptor 4 (S1P4): purchased compounds EC50. [Related pubchem assays (depositor defined):AID1509, AID1523, AID1563, AID1686, AID1701, AID1801]; type: functional
T10 sequence (O95977 whole entry): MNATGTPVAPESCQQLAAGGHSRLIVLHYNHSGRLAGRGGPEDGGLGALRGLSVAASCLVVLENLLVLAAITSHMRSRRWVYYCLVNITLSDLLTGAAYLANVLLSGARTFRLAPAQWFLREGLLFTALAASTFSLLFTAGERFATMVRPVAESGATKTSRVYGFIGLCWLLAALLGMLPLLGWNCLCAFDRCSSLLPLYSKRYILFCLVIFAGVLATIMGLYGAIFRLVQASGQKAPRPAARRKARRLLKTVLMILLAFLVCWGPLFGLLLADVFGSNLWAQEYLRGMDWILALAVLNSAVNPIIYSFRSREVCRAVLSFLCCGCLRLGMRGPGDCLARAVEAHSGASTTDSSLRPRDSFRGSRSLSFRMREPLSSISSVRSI

Cc1ccc(C(=O)NCCCN2CCOCC2)c(C)c1
EC50 (T-cell): 22.5 µM (inactive)

Cc1ccc(Cl)cc1N1CCN(C(=O)c2cc(S(=O)(=O)N(C)C)ccc2N2CCCC2)CC1
IC50 (Cannabinoid receptor 2 [1]): > 32 µM (inactive)
EC50 [2]: 8.84 µM (active)
EC50 [3]: > 32 µM (inactive)
EC50 (Cannabinoid receptor 2 [4]): > 32 µM (inactive)
IC50 (Cannabinoid receptor 1 [5]): > 32 µM (inactive)
IC50 [6]: > 32 µM (inactive)
EC50 (Cannabinoid receptor 1 [7]): > 32 µM (inactive)

Cc1ccc(S(=O)(=O)c2c(N)n(Cc3ccco3)c3nc4ccccc4nc23)cc1
IC50 [8]: > 100 µM (inactive)
IC50 [9]: > 100 µM (inactive)

O=C(NC1CCCCC1)c1cccc2c1C(=O)c1ccc(N3CCCC3)cc1S2(=O)=O
EC50 (Troponin, cardiac muscle): 6.65 µM (active)

Cc1nonc1C(=O)N/N=C/c1ccc(O)cc1O
EC50 (Hexokinase HKDC1): > 80 µM (inactive)
EC50 [10]: 0.136 µM (active)
CC50 [11]: 100 µM (active)
IC50 (Nonstructural protein 1): 4.75 µM (active)
EC50 (Hexokinase-1): > 80 µM (inactive)
IC50 [12]: 69.4 µM (active)
EC50 [13]: 0.667 µM (active)

C[N+]1(CC2COC(c3ccco3)O2)CCCCC1 (centres undefined)
EC50 [14]: > 195 µM (not active)
IC50 [15]: 3.23 µM (active)
IC50 [16]: 3.15 µM (active)
IC50 [17]: 3.34 µM (active)

CCc1cc2c3c(c1)C(C)CC(C)(C)N3C(=O)/C2=C1\SC(=O)NC1=O (centres undefined)
IC50 (HEK293 [18]): > 20 µM (inactive)
EC50 [19]: 10.4 µM (active)
IC50 (HEK293 [20]): 10.8 µM (inactive)
IC50 (Tumor necrosis factor): 8.16 µM (active)
IC50 [21]: 5.04 µM (active)
EC50 (HEK293 [22]): 7.46 µM (active)
IC50 (HEK293 [23]): 16.4 µM (active)
IC50 (HEK293 [24]): > 20 µM (inactive)
IC50 (HEK293 [25]): > 20 µM (inactive)
IC50 [26]: 14.3 µM (not active)
IC50 [27]: 5.9 µM (active)

Cc1nn(Cc2ccccc2)c(Cl)c1C(=O)OC(C)C#N (centres undefined)
EC50 [28]: > 50 µM (inactive)
